Data as given in PubChem BioAssay AID330 (DTP/NCI, 2004).
Several values for one entry are separate records, joined by “and”; a condition that tells them apart may be missing. Equal entries are not always repeated. Inconclusive results and toxic doses are left out.

Test system: P388 leukemia ip, CD2F1 mice, survival T/C
Experiment: NCI In Vivo Anticancer Drug Screen. Data for tumor model P388 Leukemia (intraperitoneal) in CD2F1 (CDF1) mice
Settings: endpoint: median survival time, higher = longer survival
How it was run: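 Mice carrying the transplanted tumor received test compound or vehicle. Survival was recorded in each group, and the value is the treated-group measurement divided by that of the vehicle-treated control group.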

[1] = dose: 25.0 mg/kg/injection, schedule: Q04DX003 (ip), vehicle: saline with Tween-80
[2] = dose: 50.0 mg/kg/injection, schedule: Q01DX009 (ip), vehicle: saline with Tween-80
[3] = dose: 100.0 mg/kg/injection, schedule: Q01DX009 (ip), vehicle: saline with Tween-80
[4] = dose: 200.0 mg/kg/injection, schedule: Q01DX009 (ip), vehicle: saline with Tween-80
[5] = dose: 100.0 mg/kg/injection, schedule: Q01DX001 (ip), vehicle: saline with Tween-80
[6] = dose: 200.0 mg/kg/injection, schedule: Q01DX001 (ip), vehicle: saline with Tween-80
[7] = dose: 50.0 mg/kg/injection, schedule: Q01DX009 (ip), vehicle: saline
[8] = dose: 100.0 mg/kg/injection, schedule: Q01DX009 (ip), vehicle: saline
[9] = dose: 200.0 mg/kg/injection, schedule: Q01DX009 (ip), vehicle: saline
[10] = dose: 400.0 mg/kg/injection, schedule: Q01DX009 (ip), vehicle: saline
[11] = dose: 50.0 mg/kg/injection, schedule: Q01DX009 (ip), vehicle: Klucel (hydroxypropylcellulose) (HPC)

`O=C(O)CNC(=O)C(CN1CC(=O)OC1c1ccc([N+](=O)[O-])cc1)N1C(=O)c2ccccc2C1=O` (configuration not stated) was tested, and the T/C [1] was 100 % of control and the T/C (dose: 50.0 mg/kg/injection, schedule: Q04DX003 (ip), vehicle: saline with Tween-80) was 100 % of control.
For `O=c1nc(-c2ccccc2)c(-c2ccccc2)n[nH]1`, the T/C [2] was 100 % of control, the T/C [3] was 100 % of control and the T/C [4] was 100 % of control.
With `CC(=O)c1c(-c2ccccc2)noc1-c1ccccc1` the T/C (dose: 100.0 mg/kg/injection, schedule: Q04DX003 (ip), vehicle: saline) was 102 % of control, the T/C (dose: 200.0 mg/kg/injection, schedule: Q04DX003 (ip), vehicle: saline) was 102 % of control and the T/C (dose: 400.0 mg/kg/injection, schedule: Q04DX003 (ip), vehicle: saline) was 101 % of control.
In the case of `Cc1cccc(NC(=O)CCC(=O)NS(C)(=O)=O)c1`, the T/C (dose: 100.0 mg/kg/injection, schedule: Q04DX002 (ip), vehicle: saline) is reported as 103 % of control, the T/C (dose: 200.0 mg/kg/injection, schedule: Q04DX002 (ip), vehicle: saline) is reported as 102 % of control and the T/C (dose: 400.0 mg/kg/injection, schedule: Q04DX002 (ip), vehicle: saline) is reported as 100 % of control.
In the case of `Cc1ccc(S(=O)(=O)NC(=O)NC(=S)c2cccs2)cc1`, the T/C (dose: 50.0 mg/kg/injection, schedule: Q01DX001 (ip), vehicle: saline with Tween-80) is reported as 98 % of control, the T/C [5] is reported as 97 % of control and the T/C [6] is reported as 91 % of control.
For `CCC(c1ccccc1)C(C#N)c1ccccc1` (configuration not stated), the T/C (dose: 25.0 mg/kg/injection, schedule: Q01DX009 (ip), vehicle: saline with Tween-80) was 95 % of control, the T/C [2] was 95 % of control and the T/C [3] was 94 % of control. The T/C [4] was 90 % of control.
For `CCC1CN2CCc3cc(OC)c(OC)cc3C2C/C1=C/C(=O)O` (configuration not stated), the T/C (dose: 50.0 mg/kg/injection, schedule: Q01DX009 (ip), vehicle: suspension in saline) was 95 % of control and the T/C (dose: 100.0 mg/kg/injection, schedule: Q01DX009 (ip), vehicle: suspension in saline) was 92 % of control.
For `Cc1ccc(S(=O)(=O)N/N=C/c2c(Cl)n(-c3ccccc3)c3ccccc23)cc1`, the T/C [5] was 100 % of control, the T/C [6] was 99 % of control and the T/C (dose: 400.0 mg/kg/injection, schedule: Q01DX001 (ip), vehicle: saline with Tween-80) was 97 % of control.
`OC(c1ccco1)c1nc2ccccc2s1` (configuration not stated) was tested, and the T/C (dose: 15.0 mg/kg/injection, schedule: Q01DX005 (ip), vehicle: Klucel (hydroxypropylcellulose) (HPC)) was 106 % of control, the T/C (dose: 30.0 mg/kg/injection, schedule: Q01DX005 (ip), vehicle: Klucel (hydroxypropylcellulose) (HPC)) was 100 % of control and the T/C (dose: 60.0 mg/kg/injection, schedule: Q01DX005 (ip), vehicle: Klucel (hydroxypropylcellulose) (HPC)) was 105 % of control and 92 % of control.
In the case of `O=c1cc[nH]cc1`, the T/C [7] is reported as 100 % of control and 103 % of control, the T/C [8] is reported as 103 % of control and 109 % of control and the T/C [9] is reported as 101 % of control and 113 % of control. The T/C [10] was 111 % of control and 116 % of control and the T/C (dose: 600.0 mg/kg/injection, schedule: Q01DX009 (ip), vehicle: saline) was 112 % of control and 113 % of control.
In the case of `NC(=S)c1ccc(N=Cc2cccs2)cc1`, the T/C (dose: 100.0 mg/kg/injection, schedule: Q01DX001 (ip), vehicle: Klucel (hydroxypropylcellulose) (HPC)) is reported as 108 % of control, the T/C (dose: 200.0 mg/kg/injection, schedule: Q01DX001 (ip), vehicle: Klucel (hydroxypropylcellulose) (HPC)) is reported as 105 % of control and the T/C (dose: 400.0 mg/kg/injection, schedule: Q01DX001 (ip), vehicle: Klucel (hydroxypropylcellulose) (HPC)) is reported as 102 % of control.
In the case of `O=C1N2CCSC2=NC1(c1ccccc1)c1ccccc1`, the T/C (dose: 25.0 mg/kg/injection, schedule: Q04DX003 (ip), vehicle: Klucel (hydroxypropylcellulose) (HPC)) is reported as 100 % of control, the T/C (dose: 50.0 mg/kg/injection, schedule: Q04DX003 (ip), vehicle: Klucel (hydroxypropylcellulose) (HPC)) is reported as 100 % of control and the T/C (dose: 100.0 mg/kg/injection, schedule: Q04DX003 (ip), vehicle: Klucel (hydroxypropylcellulose) (HPC)) is reported as 93 % of control. The T/C (dose: 200.0 mg/kg/injection, schedule: Q04DX003 (ip), vehicle: Klucel (hydroxypropylcellulose) (HPC)) was 102 % of control and the T/C (dose: 400.0 mg/kg/injection, schedule: Q04DX003 (ip), vehicle: Klucel (hydroxypropylcellulose) (HPC)) was 100 % of control.
`Cc1ccc2c(c1)nc1sc(C)cc(=O)n12` was tested, and the T/C [11] was 97 % of control, the T/C (dose: 100.0 mg/kg/injection, schedule: Q01DX009 (ip), vehicle: Klucel (hydroxypropylcellulose) (HPC)) was 95 % of control and the T/C (dose: 200.0 mg/kg/injection, schedule: Q01DX009 (ip), vehicle: Klucel (hydroxypropylcellulose) (HPC)) was 92 % of control.
`CC(=O)OCC(OC(C)=O)C(Cl)CCl` (configuration not stated) was tested, and the T/C (dose: 50.0 mg/kg/injection, schedule: Q01DX005 (ip), vehicle: saline) was 103 % of control, the T/C (dose: 100.0 mg/kg/injection, schedule: Q01DX005 (ip), vehicle: saline) was 101 % of control and the T/C (dose: 200.0 mg/kg/injection, schedule: Q01DX005 (ip), vehicle: saline) was 107 % of control.
For `Cn1ccnc1Sc1ccnc(Sc2ccc([N+](=O)[O-])cc2[N+](=O)[O-])n1`, the T/C [7] was 108 % of control, the T/C [8] was 96 % of control and the T/C [9] was 87 % of control.
In the case of `CN(C)c1ccc(C2OC3(CCCCC3)C[N+]23CCCC3)cc1` (configuration not stated), the T/C (dose: 3.12 mg/kg/injection, schedule: Q01DX009 (ip), vehicle: saline with Tween-80) is reported as 100 % of control, the T/C (dose: 6.25 mg/kg/injection, schedule: Q01DX009 (ip), vehicle: saline with Tween-80) is reported as 104 % of control and the T/C (dose: 12.5 mg/kg/injection, schedule: Q01DX009 (ip), vehicle: saline with Tween-80) is reported as 86 % of control.
For `CCCCc1ccc(Nc2c(C(=O)O)cnc3cc4c(cc23)OCO4)cc1`, the T/C (dose: 60.0 mg/kg/injection, schedule: Q01DX005 (ip), vehicle: Klucel + Tween-80) was 103 % of control, the T/C (dose: 120.0 mg/kg/injection, schedule: Q01DX005 (ip), vehicle: Klucel + Tween-80) was 100 % of control and the T/C (dose: 240.0 mg/kg/injection, schedule: Q01DX005 (ip), vehicle: Klucel + Tween-80) was 97 % of control.
For `COc1nccnn1`, the T/C [7] was 95 % of control, the T/C [8] was 91 % of control and the T/C [9] was 95 % of control. For the same molecule, the T/C [10] was 107 % of control.
In the case of `N#CCCSC(=S)N1CCN(C(=S)SCCC#N)C1=O`, the T/C (dose: 50.0 mg/kg/injection, schedule: Q01DX005 (ip), vehicle: saline with Tween-80) is reported as 92 % of control, the T/C (dose: 100.0 mg/kg/injection, schedule: Q01DX005 (ip), vehicle: saline with Tween-80) is reported as 87 % of control and the T/C (dose: 200.0 mg/kg/injection, schedule: Q01DX005 (ip), vehicle: saline with Tween-80) is reported as 92 % of control.
In the case of `O=C=N[Si](c1ccccc1)(c1ccccc1)c1ccccc1`, the T/C [5] is reported as 96 % of control and the T/C [6] is reported as 89 % of control.
For `Cc1ccc(OP(=O)(Oc2ccc(C)cc2)Oc2ccc(C)cc2)cc1.Cc1ccc(OP(=O)(Oc2ccc(C)cc2)Oc2ccc(C)cc2)cc1.Cc1ccc(OP(=O)(Oc2ccc(C)cc2)Oc2ccc(C)cc2)cc1.Cc1ccc(OP(=O)(Oc2ccc(C)cc2)Oc2cccc(C)c2)cc1.[Cd+2].[O-][Cl+3]([O-])([O-])O`, the T/C (dose: 12.5 mg/kg/injection, schedule: Q01DX009 (ip), vehicle: Klucel (hydroxypropylcellulose) (HPC)) was 95 % of control, the T/C (dose: 25.0 mg/kg/injection, schedule: Q01DX009 (ip), vehicle: Klucel (hydroxypropylcellulose) (HPC)) was 96 % of control and the T/C [11] was 93 % of control and 96 % of control.
`C/C(=N\NC(N)=Nc1ccccc1)c1ccc(Cl)c(Cl)c1` was tested, and the T/C (dose: 25.0 mg/kg/injection, schedule: Q04DX002 (ip), vehicle: saline with Tween-80) was 100 % of control, the T/C (dose: 50.0 mg/kg/injection, schedule: Q04DX002 (ip), vehicle: saline with Tween-80) was 101 % of control and the T/C (dose: 100.0 mg/kg/injection, schedule: Q04DX002 (ip), vehicle: saline with Tween-80) was 110 % of control.
With `O=C(O)CCCCCOC(C[N+](=O)[O-])C(Cl)(Cl)Cl` (configuration not stated) the T/C [2] was 97 % of control, the T/C [3] was 102 % of control and the T/C [4] was 111 % of control.
For `C#CC(OC(=O)NC1CCCCC1)(c1ccccc1)c1ccccc1`, the T/C (dose: 4.4 mg/kg/injection, schedule: Q01DX009 (ip), vehicle: saline with Tween-80) was 100 % of control, the T/C (dose: 6.6 mg/kg/injection, schedule: Q01DX009 (ip), vehicle: saline with Tween-80) was 98 % of control and the T/C (dose: 10.0 mg/kg/injection, schedule: Q01DX009 (ip), vehicle: saline with Tween-80) was 93 % of control. The T/C (dose: 15.0 mg/kg/injection, schedule: Q01DX009 (ip), vehicle: saline with Tween-80) was 100 % of control, the T/C (dose: 22.0 mg/kg/injection, schedule: Q04DX003 (ip), vehicle: saline with Tween-80) was 118 % of control and the T/C [1] was 108 % of control. The T/C (dose: 33.0 mg/kg/injection, schedule: Q01DX009 (ip), vehicle: saline with Tween-80) was 163 % of control, the T/C (dose: 33.0 mg/kg/injection, schedule: Q04DX003 (ip), vehicle: saline with Tween-80) was 122 % of control and the T/C [2] was 102 % of control. For the same molecule, the T/C (dose: 75.0 mg/kg/injection, schedule: Q04DX003 (ip), vehicle: saline with Tween-80) was 163 % of control.
